Data as given in patent US9388444B2, “Use of glucosyltransferase gene” (The United States of America, as represented by the …, priority 2013, dated 2016).

Legend:
[1] = tested on: Gtf-1; test: In vitro HPLC-MS glucosyltransferase activity assay with sonicated extract of recombinant S. cerevisiae [pYES2/NT/gft1]; format: biochemical, C. bombicola; details: for effect of lipid stock solvent on enzyme activity: solvent used to prepare 50 mM lipid stock solution; for glucosyltransferase enzyme activity toward lipid substrate (appearance of glucoside product): UDP-glucose as sugar substrate, 30° C., 3 hours, HPLC-MS, product absent with control [pYES2/NT/lacZ] extract
Method: An in vitro enzyme activity assay is performed to verify the functional property of Gtf-1 expressed in the recombinant S. cereviciae [pYES2/NT/gft1]. In this plasmid, the expression of gtf-1 is regulated by a yeast GAL1 promoter that is inducible by the addition of galactose (FIG. 1). An HPLC-MS-based method is developed to assay for glucosyltransferase activity in recombinant S. cerevisiae expressing C. bombicola gft-1 gene cloned in the pYES2/NT/gft1 plasmid construct. As control samples, S. cerevisiae transformed with pYES2/NT/gft1CON and pYES2/NT/lacZ are included in the study. The growing and induction of S. cerevisiae cells is performed according to the protocol described in the manual of pYES2/NT Yeast Expression System (Invitrogen, Carlsbad, Calif.). Briefly, cells from long-term (−80° C.) storage stock cultures are streaked on Yeast Extract Peptone Dextrose (YPD) agar solid medium (1% w/v yeast extract, 2% w/v peptone, 2% w/v dextrose (D-(+)glucose), 2% w/v agar) and grown at 30° C. for 1 to 2 days. A single colony is picked to inoculate 5 ml of SC-U+Glu(2%) in a 25-ml Erlenmeyer flask. The culture is grown overnight at 30° C. and 200 rpm. A volume of the overnight culture, which is based on achieving a theoretical absorbance at 600 nm (A600 nm)=0.4 in the fresh culture, is added to 50 ml of SC-U+Raf(2%) medium in a 125-ml Erlenmeyer. After an overnight incubation (30° C., 200 rpm), A600 nm values of the cultures are recorded. Five ml of sterile 20% (w/v) D-(+)-galactose are added to each culture to induce expression of the cloned gene, and the cells are incubated for 4 hours at 30° C., 200 rpm. Cells are then harvested by centrifugation (Sorvall RC-5B Plus centrifuge; 5,000×g; 10 min; 4° C.) (ThermoFisher Scientific, Waltham, Mass.) with the supernatant being decanted. The pelleted cells are resuspended and washed with 5 ml cold water, undergo another centrifugation using same parameters with removal of the supernatant after centrifugation, and are resuspended in a volume of a Breaking Buffer (50 mM sodium phosphate at pH 7.4; 1 mM Na-EDTA; 5% v/v glycerol; 1 mM phenylmethylsulfonylfluoride (PMSF) which is added immediately before use) in 15-mL Corex centrifugation tube to give a theoretical A600 nm of 200. Cell suspension can be stored at −20° C. overnight and still retain glucosyltransferase activity. Cells are broken by sonication (Sonicator model W-385 equipped with a microtip probe; Heat-Systems, Inc., Farmingdale, N.Y.) for 10 to 15 seconds (with 30 seconds sample cooling on ice-water bath) at maximum probe-tolerant power setting. The sonicated cell suspension (SCS) is used in the reaction mixtures to assay for glycosylation activity.
The reaction mixture for glycosylation assay is largely based on that described by Saerens et al. 2011b. The following procedure is used: 10 μl of a 50 mM-lipid substrate stock solution (which is prepared in one of the following solvents: DMF (dimethylformamide), DMSO ([…]), THF (tetrahydrofuran), ethylacetate, or ethanol) and 10 μl of a 50 mM-UDP-glucose solution (Sigma Aldrich, St. Louis, Mo.) are added to 30 μl of 50 mM potassium phosphate buffer (pH 7.5) in a 13×100 mm test tube on ice. 200 μl of the sonicated cell suspension is then added to the mixture of the two substrates. The final reaction mixture (250 μl) is incubated at 30° C. for 3 hours with frequent manual mixing (approximately every 10-15 minutes). The reaction is stopped by the addition of 200 μl of 2N HCl, followed by vigorous vortex mixing for approximately 30 to 60 seconds. The reaction mixture is extracted with 1 to 2 ml 1:1 v/v ethylether/ethylacetate mixture by vigorous vortex mixing. The tube is placed on lab bench undisturbed for phase separation to occur. Using a Hamilton syringe, the organic phase (upper layer) is carefully removed and is placed into a clean test tube (12×75 mm). The solvent is then evaporated by passing a stream of nitrogen gas over the solution, leaving a dry residue. […]

[2] = aqueous solution of sophorolipid; cited from earlier work

Row | Compound | glucosyltransferase enzyme activity toward lipid substrate (appearance of glucoside product) [1] | other results
1 | C1CCOC1 [THF, tetrahydrofuran] |  | effect of lipid stock solvent on enzyme activity [1]: inhibits enzyme activity
2 | 17-hydroxy-oleate [17-OH oleate] | presence of glucosyltransferase enzyme activity is confirmed | 
3 | CC(C)CCC[C@@H](C)[C@H]1CC[C@H]2[C@@H]3CC=C4C[C@@H](O)CC[C@]4(C)[C@H]3CC[C@]12C [cholesterol] | presence of glucosyltransferase enzyme activity is confirmed | 
4 | sophorolipid |  | Surface tension [2]: 30-40 mN/m
5 | CC(C)[C@@H](C)/C=C/[C@@H](C)[C@H]1CC[C@H]2C3=CC=C4C[C@@H](O)CC[C@]4(C)[C@H]3CC[C@]12C [ergosterol] | give the same results | 
6 | CC[C@H](CC[C@@H](C)[C@H]1CC[C@H]2[C@@H]3CC=C4C[C@@H](O)CC[C@]4(C)[C@H]3CC[C@]12C)C(C)C [β-sitosterol] | give the same results | 
7 | CN(C)C=O [DMF, dimethylformamide] |  | effect of lipid stock solvent on enzyme activity [1]: without adversely impacting on enzymatic activity
8 | CC[C@H](/C=C/[C@@H](C)[C@H]1CC[C@H]2[C@@H]3CC=C4C[C@@H](O)CC[C@]4(C)[C@H]3CC[C@]12C)C(C)C [stigmasterol] | give the same results | 
